For one assay, the system named is oxytocin. The settings on record: reported in the cited literature; cited from earlier work.
The next assay concerns ESTROUS RAT UTERUS. Description: Oxytocic bioassay (isolated rat uterus, integrated contraction response to oxytocin). The format is cell-based. The text has this: The protocol used for the oxytocin bioassay procedure is derived from procedures described in a paper by Sawyer, et al., Endocrinology, 106:81 (1980), which in turn was based on reports of Munsick, Brit. J. Pharmacol., 3:328 (1960), and Holton, Brit. J. Pharmacol., 3:328 (1948). The assay calculations for the pA2 estimates are described by Schild, British J. Pharmacology, 2:189 (1947). The major difference in the present procedure from those reported by others in the field is that the area under the contraction is integrated where most other techniques calculate the amplitude. Integration provides much more consistent and reliable results although the pA2 estimates are approximately an order of magnitude lower than those reported using amplitude of the contraction as the endpoint.
1. Animals--a 1.5 cm piece of uterus from a virgin rat (Holtzman) in natural estrus is used for the assay.
2. Buffer/Assay Bath--The buffer used is Munsicks. […] The buffer is gassed continuously with 95% oxygen; 5% carbon dioxide giving a pH of 7.4. The temperature of the assay bath is 37° C. A 10 ml assay bath is used that contains a water jacket for maintaining the temperature and inlet and outlet spikets for adding and removing buffer.
3. Polygraph/transducer--The piece of uterine tissue used for the assay is anchored at one end and connected to a Statham Strain Gauge Force Transducer at the other end which in turn is attached to a Grass Polygraph Model 79 for monitoring the contractions.
4. Assay Protocol. (a) The tissue is equilibrated in the assay bath for one hour with washing with new buffer every fifteen minutes. One gram of tension is kept on the tissue at all times.
(b) The tissue is stimulated initially with oxytocin at 10 nM to "acclimate" the tissue and with […] KCl to determine the maximum contractile response.
(d) The tissue is exposed to oxytocin (Calbiochemical, San Diego, Calif.) for one minute and washed out. There is a three minute interval before addition of the next dose of the agonist or antagonist. When the antagonist is tested, it is given five minutes before the agonist. The agonist is given for one minute. All responses are integrated using a 7P10 Grass Integrator. This is the major difference between the present protocol and others in the literature which usually measure amplitude of the contractions as the response. A single concentration of oxytocin, equal to 80% of the maximum response, is used to test the antagonist. […] This is repeated three times for each dose of antagonist for a three point assay.
(e) Calculations for pA2 : The dose-response (DR) ratios are calculated for antagonist and a Schild's Plot is performed by plotting the Log (DR-1) vs. Log of antagonist concentration. The line plotted is calculated by least squares regression analysis. The pA2 is the concentration of antagonist at the point where the regression line crosses the 0 point of the Log (DR-1) ordinate. The pA2 is the negative Log of the concentration of antagonist that will reduce the response to the agonist by one-half.
The protocol used for the oxytocin bioassay procedure is derived from procedures described in a paper by Sawyer, et al., Endocrinology, 106:81 (1980), which in turn was based on reports of Munsick, Brit. J. Pharmacol., 3:328 (1960), and Holton, Brit. J. Pharmacol., 3:328 (1948). The assay calculations for the pA2 estimates are described by Schild, Brit. J. Pharmacol. (1947). The major difference in procedure from those previously reported was the integration of the area under the contraction instead of merely calculating the amplitude. Integration provides more consistent and reliable results, although the pA2 estimates are about an order of magnitude lower than those reported using amplitude of the contraction as the endpoint.
A 1.5 cm piece of uterus from a virgin rat (Holtzman) in natural estrus is used for the assay.
The buffer used is Munsick's. […]

The next assay relates to ADH. Put plainly: ADH bioassay (alteration in urine output due to ADH). The format is in vivo. The settings on record: in vivo. The procedure: The above compound was also tested for antagonism to vasopressin. Anti-ADH activity can be determined by measuring the alteration in urine output due to ADH in the presence and absence of the antagonist. A suitable ADH-assay is described in Sawyer, et al., Endocrinology, 63:694 (1958). […] The ratio of oxytocin antagonism to ADH antagonism was very high, viz. over 1, 866, as compared with 200 for the compositions disclosed in the parent applications.
The anti-ADH activity is measured by the alteration in urine […] in the presence and absence of the antagonist to determine the specificity of the antagonist. The anti-ADH assay is described in Sawyer, et al., Endocrinology, 63:694 (1958).

The target of the next assay is T1, RAT OXYTOCIN RECEPTOR (Rattus norvegicus, UniProt P70536).
T1 construct: from tissue; host or cells: uterus of day-21 pregnant Holtzman rats, sucrose-gradient membrane fraction
T1 sequence (P70536 1-388): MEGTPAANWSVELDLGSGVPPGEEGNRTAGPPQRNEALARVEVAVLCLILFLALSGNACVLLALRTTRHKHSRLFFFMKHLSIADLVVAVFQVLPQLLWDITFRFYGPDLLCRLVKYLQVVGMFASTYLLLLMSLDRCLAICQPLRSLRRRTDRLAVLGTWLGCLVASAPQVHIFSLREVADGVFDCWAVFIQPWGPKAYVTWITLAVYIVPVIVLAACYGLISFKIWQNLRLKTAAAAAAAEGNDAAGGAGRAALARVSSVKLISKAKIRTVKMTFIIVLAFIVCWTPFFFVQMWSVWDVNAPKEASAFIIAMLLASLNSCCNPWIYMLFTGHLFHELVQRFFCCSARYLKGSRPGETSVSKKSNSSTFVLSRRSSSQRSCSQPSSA
Put plainly: Oxytocin receptor assay, pregnant rat uterus (P21) membranes, 3H-OT competition. Format: binding. The procedure: Uterine tissue was removed on day 21 of pregnancy (delivery=Days 211/2 to 221/2) from Holtzman rats. The tissue was emptied of its contents, rinsed in ice cold buffer, cut into small pieces and frozen at -70° C. until homogenization.
(§1) Oxytocin receptors (OTrs) reside on the cell membrane and are present at high concentrations at the end of pregnancy in uterine tissue. Frozen tissue is homogenized in Tris buffer, the homogenate filtered, and the filtrate centrifuged at 1000 g for 15 minutes at 4° C. The supernatant is centrifuged at 40,000 g for 30 minutes and the pellet containing the cell membranes resuspended in 10% sucrose. Density gradient ultracentrifugation is then performed by placing the 10 % sucrose suspension on top of 35% sucrose and centrifuging for 30 minutes in a swing bucket rotor at 105,000 g. The membranes at the interface of the 10%/35% sucrose are removed and resuspended in Tris buffer containing EDTA for 30 minutes. This procedure removes divalent cation and results in dissociation of any endogenously bound OT to the receptor. This mixture is then centrifuged for 15 minutes at 100,000 g and the pellet containing the membrane OTrs resuspended in Tris, PMSF, Mg^++, buffer by sonication.
(§2) The binding assay consist of 0.1 ml of 20,000 cmp of tritium labeled OT (New England Nuclear, […]), 0.1 ml of OT antagonist added at increasing concentration, 0.25 ml of buffer and 0.05 ml of membrane (70-150 ug protein). A nonspecific tube has 100× of cold OTA added to it. The incubation is for 30 minutes at 30 ° C. The membrane is pelleted by centrifugation in ultraclear mini tubes (5×41 mm) for 30 minutes at 105,000 g. The resulting pellet containing the bound ^3 H-OT is dissolved in 0.1N NaOH at 45 ° C. for 30 minutes and this mixture is then placed in liquid scintillation counting fluid and counted for dpms in a scintillation counter.
(§3) The data is analyzed by nonlinear curve fitting methods using McPherson's EBDA (J Pharmacol Methods 14:213-228, 1985) and Munson and Rodbard's LIGAND (Anal Biochem 107:220-239, 1980) program for saturation and competition analysis for determining Kds and Kis.

For the next assay, the target named is T2, HUMAN OXYTOCIN RECEPTOR (Homo sapiens, UniProt P30559).
T2 construct: Oxytocin receptors (OTrs) reside on the cell membrane and are present at high concentrations at the end of pregnancy in uterine tissue; from tissue; host or cells: human myometrium from cesarean section patients, sucrose-gradient membrane fraction
T2 sequence (P30559 1-389): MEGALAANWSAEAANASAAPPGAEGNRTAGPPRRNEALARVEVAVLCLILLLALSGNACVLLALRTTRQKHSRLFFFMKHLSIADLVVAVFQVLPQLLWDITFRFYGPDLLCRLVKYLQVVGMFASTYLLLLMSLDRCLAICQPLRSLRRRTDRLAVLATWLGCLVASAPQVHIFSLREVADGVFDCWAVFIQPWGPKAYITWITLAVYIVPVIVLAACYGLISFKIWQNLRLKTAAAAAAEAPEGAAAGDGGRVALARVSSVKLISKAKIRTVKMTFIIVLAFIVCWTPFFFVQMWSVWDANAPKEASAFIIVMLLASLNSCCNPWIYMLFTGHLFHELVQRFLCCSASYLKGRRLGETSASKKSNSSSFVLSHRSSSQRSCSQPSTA
Description: Oxytocin receptor assay, human myometrial tissue membranes, 3H-OT competition. The format is binding. Here is the method:
Human myometrial tissue was collected from patients at the time of cesarian section after informed consent. The tissue was rinsed in cold buffer, cut into small pieces and frozen at -70° C. until homogenization.
as §1, §2, §3

Starred links: 1 amine or outer side, 2 acyl side, 3 side chain; linkers in the order of their positions; H or OH if unused. Positions of bridges follow the written chain, without caps; N, C: chain ends. Non-standard residues stand in square brackets, D forms with d. Residues, ends and D or L forms follow the SMILES beside them. X1 = O=C(CC1(S[*:2])CCCCC1)[*:1]; Pen = CC(C)(S)[C@H](N)C(=O)O; Orn = NCCC[C@H](N)C(=O)O; Mpa = O=C(O)CCS

Regarding “1deamino[D-Tyr(OEt)^2, Thr^4, Orn^8 ] vasopressin”, in the assay on oxytocin, the “pA2 (anti-oxytocic, literature)” value was 8.3.

As for `CC[C@H](C)[C@@H]1NC(=O)[C@H](Cc2ccccc2)NC(=O)[C@@H](Cc2ccccc2)NC(=O)CC2(CCCCC2)SSC[C@@H](C(=O)N2CCC[C@H]2C(=O)N[C@@H](CCCNC(=N)N)C(=O)NCC(N)=O)NC(=O)[C@H](CC(N)=O)NC1=O` [Compound A, [Pmp^1,D-Phe^2,Phe^3,Ile^4,Arg^8] oxytocin, reference compound] ([dF]FINCPRG-NH2; linker N-5 via X1), the “Oxytocic Bioassay pA2” value in the assay on ESTROUS RAT UTERUS (virgin rat uterus in natural estrus, Munsick's buffer 0.5 mM Mg++, integrated contraction area) was determined as 7.35. Besides, the “ADH Bioassay pA2” value in the assay on ADH is listed as 7.66.

For “(1-deaminopenicillamine, 2-0-methyltyrosine) oxytocin”, the “pA2 (anti-oxytocic, literature)” value with oxytocin is reported as 7.8.

With `CC[C@H](C)[C@@H]1NC(=O)[C@@H](Cc2c[nH]c3ccccc23)NC(=O)CC2(CCCCC2)SSC(C)(C)[C@@H](C(=O)N2CCC[C@H]2C(=O)N[C@@H](CCCNC(=N)N)C(=O)NCC(N)=O)NC(=O)[C@H](CC(N)=O)NC(=O)[C@H](CCC(N)=O)NC1=O` [Compound C2, [Pmp^1, DTrp^2, Pen^6, Arg^8] oxytocin] ([dW]IQN[Pen]PRG-NH2; linker N-5 via X1), at RAT OXYTOCIN RECEPTOR, binding was put at a Kd of 0.87 nM.

Turning to 1-deamino, ethyloxytocin, in the assay with oxytocin, the “pA2 (anti-oxytocic, literature)” value is listed as 7.2.

On to `CCOc1ccc(C[C@H]2NC(=O)CCSSC[C@@H](C(=O)N3CCC[C@H]3C(=O)N[C@@H](CCCN)C(=O)NCC(N)=O)NC(=O)[C@H](CC(N)=O)NC(=O)[C@H]([C@@H](C)O)NC(=O)[C@H]([C@@H](C)CC)NC2=O)cc1` [E, [Mpa^1,DTyr(Et)^2,Thr^4, Orn^8] oxytocin, reference compound] ([Mpa][dY](Et)ITNCP[Orn]G-NH2; disulfide 1-6), for which the dissociation constant Kd at RAT OXYTOCIN RECEPTOR was 19.6 nM; at HUMAN OXYTOCIN RECEPTOR, 18.9 nM. For the same compound, on RAT OXYTOCIN RECEPTOR (ratio of binding affinity to ANTAG I, rat oxytocin receptor), the “rOTr (OTA/ANTI)” value is recorded as 0.4. In the assay with ESTROUS RAT UTERUS (estrous rat uterus, Table 3), the “OXYTOCIC BIOASSAY ED50” value was found to be 102.33 nM. In the assay on ESTROUS RAT UTERUS (estrous rat uterus, Table 4), the “BIOASSAY ED50” value is given as 102.3 nM. The “BIOASSAY (ANTI/OTA)” value with ESTROUS RAT UTERUS (ratio to ANTAG I, rat oxytocic bioassay) came out at 0.3. In addition, on HUMAN OXYTOCIN RECEPTOR (ratio of binding affinity to ANTAG I, human oxytocin receptor), the “hOTR (OTA/ANTI)” value was determined as 1.0.

In the case of `CC[C@H](C)[C@@H]1NC(=O)[C@@H](Cc2c[nH]c3ccccc23)NC(=O)CC2(CCCCC2)SSC[C@@H](C(=O)N2CCC[C@H]2C(=O)N[C@@H](CCCNC(=N)N)C(=O)NCC(N)=O)NC(=O)[C@H](CC(N)=O)NC(=O)[C@H](CCC(N)=O)NC1=O` [Compound C, [Pmp^1, D-Trp^2, Arg^8] oxytocin] ([dW]IQNCPRG-NH2; linker N-5 via X1), the dissociation constant (Kd) at RAT OXYTOCIN RECEPTOR is 4.93 nM; on HUMAN OXYTOCIN RECEPTOR, 5.49 nM. Further, the “ADH Bioassay pA2” value in the assay on ADH is given as 5.51.

The term Kd denotes the equilibrium constant for the complex coming apart.
